Measured values published in US6514692B2, “Method for treatment of immunodeficiency virus infection” (priority 1996, dated 2003).
“And” between values parts separate entries of the source, which are not always exact repeats. Identical values can stand only once. Like-named read-outs stand apart in the source and are kept apart here. Where no end group is shown, it is not given here.

Legend:
SK1 isolate of HIV-1 = tested on: SK1 isolate of HIV-1
From the text: (§1) ME180 cells, a cervical epithelial cell line, were obtained from the American Type Culture Collection. These cells were thawed from liquid nitrogen and grown in RPMI 1640 medium supplemented with 10t fetal bovine serum, glutamine and antibiotics. The cells were adherent and were trypsinized (0.5% trypsin in HBSS) to remove them from the flask for passaging and use in assays. For use in the microtiter transmission inhibition assay, ME180 cells were trypsinized, washed and seeded in 96-well flat bottom microtiter plates (COSTAR) at a density of 5×10^3 cells per well. The cells were incubated at 37° C. for 24 hours prior to the tart of the assay. H9 cells chronically infected with he SK1 isolate of HIV-1 were treated with 200 μg/ml mitomycin C for 60 minutes at 37° C. After treatment the cells were washed three times with tissue culture medium. The chronically infected lymphocytes were added to each well at a density of 2×10^4 cells per well. The concentration of mitomycin C used in the treatment of the lymphocytes was chosen to allow lymphocyte survival for the period of time required to transmit virus to the uninfected ME180 cells, but to die prior to the time of assay so as not to contribute to the p24 signal used as the endpoint (see below). In the transmission assay the lytic peptides D4E1 and D2A21, with and without 150 μg/ml pig mucin, were added prior to the addition of chronically infected cells or were mixed with the chronically infected cells prior to their addition to the monolayer of ME180 cells. Mucin was included because it is an abundant constituent of the normal vaginal secretions of a human being, thus any chemotherapeutic agent targeting HIV should be active in its presence if it is to have clinical value. […] The lymphocytes and peptide were co-cultured with the ME180 cells for 6 hours and then removed by washing the ME180 monolayer four times with PBS. The plate was then incubated at 37° C. for six days. Medium was removed and changed every 48 hours during the incubation stage. No further peptide was added after the initial dose. At six days post-co-cultivation, the supernatant was removed from the wells and evaluated for the quantity of p24 antigen by ELISA. The ELISA was performed according to the manufacturer's recommendations. The amount of virus production in wells treated with various concentrations of the peptides was evaluated with appropriate cell and virus controls. Data are reported as a percent of virus control at each drug concentration. Linear regression analysis was used to calculate the […] and IC95 concentrations of the transmission inhibitor. […] TI represents the toxicity index, which is the ratio of the TC50/IC50, and is an indication of the relative concentrations window that exists between efficacy and toxicity.

ME180 cells = test: toxicity (XTT) in transmission inhibition assay; settings: for TOXICITY VALUES (XTT), single samples: samples 1-3; for TC50 (concentration at which 50% of cells are eliminated): interpolation from % CC
From the text: as §1

[1] = toxicity (XTT) in transmission inhibition assay; settings: human, ME180 cells
From the text: as §1

[2] = 0.32 μg/ml, with 150 μg/ml pig mucin
[3] = 1 μg/ml, with 150 μg/ml pig mucin
[4] = 3.2 μg/ml, with 150 μg/ml pig mucin
[5] = 10 μg/ml, with 150 μg/ml pig mucin
[6] = 32 μg/ml, with 150 μg/ml pig mucin
[7] = 100 μg/ml, with 150 μg/ml pig mucin

## FAKKFAKKFKKFAKKFAKFAFAF [D2A21]
SK1 isolate of HIV-1; 0.32 μg/ml, no mucin
  % VC (p24, percent of virus control): 81.8%
SK1 isolate of HIV-1; [2]
  % VC (p24, percent of virus control): 33.7%
SK1 isolate of HIV-1; 1 μg/ml, no mucin
  % VC (p24, percent of virus control): 67.3%
SK1 isolate of HIV-1; [3]
  % VC (p24, percent of virus control): 27.7%
SK1 isolate of HIV-1; 3.2 μg/ml, no mucin
  % VC (p24, percent of virus control): 40.6%
SK1 isolate of HIV-1; [4]
  % VC (p24, percent of virus control): 18.8%
SK1 isolate of HIV-1; 10 μg/ml, no mucin
  % VC (p24, percent of virus control): 27.4%
SK1 isolate of HIV-1; [5]
  % VC (p24, percent of virus control): 10.1%
SK1 isolate of HIV-1; 32 μg/ml, no mucin
  % VC (p24, percent of virus control): 2.2%
SK1 isolate of HIV-1; [6]
  % VC (p24, percent of virus control): 0.0%
SK1 isolate of HIV-1; 100 μg/ml, no mucin
  % VC (p24, percent of virus control): 0.0%
SK1 isolate of HIV-1; no mucin
  TI (toxicity index, TC50/IC50): TI = 15
SK1 isolate of HIV-1; with 150 μg/ml pig mucin
  TI (toxicity index, TC50/IC50): TI = 139
ME180 cells; 0.32 μg/ml, no mucin
  TOXICITY VALUES (XTT), MEAN: 0.515 O.D. @ 450/650 nm
  TOXICITY VALUES (XTT), single samples: 0.541 O.D. @ 450/650 nm and 0.497 O.D. @ 450/650 nm and 0.506 O.D. @ 450/650 nm
ME180 cells; [2]
  % CC (XTT, percent of cell control): 97.6%
  TOXICITY VALUES (XTT), MEAN: 0.515 O.D. @ 450/650 nm
  TOXICITY VALUES (XTT), single samples: 0.541 O.D. @ 450/650 nm and 0.497 O.D. @ 450/650 nm and 0.506 O.D. @ 450/650 nm
ME180 cells; 1 μg/ml, no mucin
  TOXICITY VALUES (XTT), MEAN: 0.528 O.D. @ 450/650 nm
  TOXICITY VALUES (XTT), single samples: 0.550 O.D. @ 450/650 nm and 0.514 O.D. @ 450/650 nm and 0.520 O.D. @ 450/650 nm
ME180 cells; [3]
  % CC (XTT, percent of cell control): 100.1%
  TOXICITY VALUES (XTT), MEAN: 0.528 O.D. @ 450/650 nm
  TOXICITY VALUES (XTT), single samples: 0.550 O.D. @ 450/650 nm and 0.514 O.D. @ 450/650 nm and 0.520 O.D. @ 450/650 nm
ME180 cells; 3.2 μg/ml, no mucin
  TOXICITY VALUES (XTT), MEAN: 0.515 O.D. @ 450/650 nm
  TOXICITY VALUES (XTT), single samples: 0.525 O.D. @ 450/650 nm and 0.513 O.D. @ 450/650 nm and 0.506 O.D. @ 450/650 nm
ME180 cells; [4]
  % CC (XTT, percent of cell control): 97.6%
  TOXICITY VALUES (XTT), MEAN: 0.515 O.D. @ 450/650 nm
  TOXICITY VALUES (XTT), single samples: 0.525 O.D. @ 450/650 nm and 0.513 O.D. @ 450/650 nm and 0.506 O.D. @ 450/650 nm
ME180 cells; 10 μg/ml, no mucin
  TOXICITY VALUES (XTT), MEAN: 0.506 O.D. @ 450/650 nm
  TOXICITY VALUES (XTT), single samples: 0.518 O.D. @ 450/650 nm and 0.506 O.D. @ 450/650 nm and 0.491 O.D. @ 450/650 nm
ME180 cells; [5]
  % CC (XTT, percent of cell control): 95.9%
  TOXICITY VALUES (XTT), MEAN: 0.506 O.D. @ 450/650 nm
  TOXICITY VALUES (XTT), single samples: 0.518 O.D. @ 450/650 nm and 0.508 O.D. @ 450/650 nm and 0.491 O.D. @ 450/650 nm
ME180 cells; 32 μg/ml, no mucin
  TOXICITY VALUES (XTT), MEAN: 0.322 O.D. @ 450/650 nm
  TOXICITY VALUES (XTT), single samples: 0.342 O.D. @ 450/650 nm and 0.315 O.D. @ 450/650 nm and 0.308 O.D. @ 450/650 nm
ME180 cells; [6]
  % CC (XTT, percent of cell control): 61.04%
  TOXICITY VALUES (XTT), MEAN: 0.322 O.D. @ 450/650 nm
  TOXICITY VALUES (XTT), single samples: 0.342 O.D. @ 450/650 nm and 0.315 O.D. @ 450/650 nm and 0.308 O.D. @ 450/650 nm
ME180 cells; 100 μg/ml, no mucin
  TOXICITY VALUES (XTT), MEAN: 0.087 O.D. @ 450/650 nm
  TOXICITY VALUES (XTT), single samples: 0.061 O.D. @ 450/650 nm and 0.083 O.D. @ 450/650 nm and 0.096 O.D. @ 450/650 nm
ME180 cells; [7]
  % CC (XTT, percent of cell control): 16.4%
  TOXICITY VALUES (XTT), MEAN: 0.087 O.D. @ 450/650 nm
  TOXICITY VALUES (XTT), single samples: 0.081 O.D. @ 450/650 nm and 0.083 O.D. @ 450/650 nm and 0.096 O.D. @ 450/650 nm
ME180 cells; no mucin
  TC50 (concentration at which 50% of cells are eliminated): TC50 = 39 μg/ml
ME180 cells; with 150 μg/ml pig mucin
  TC50 (concentration at which 50% of cells are eliminated): TC50 39 μg/ml
[1]
  viability at 6 h, 0.32 µg/mL: 97.6%
  viability at 6 h, 1 µg/mL: 100%
  viability at 6 h, 3.2 µg/mL: 97.6%
  viability at 6 h, 10 µg/mL: 95.9%
  viability at 6 h, 32 µg/mL: 61%
  viability at 6 h, 100 µg/mL: 16.4%
